Seven compounds from ChEMBL document CHEMBL1201862, “PubChem BioAssay data set” (2004) can be followed below.

Each structure is given as a SMILES string.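 Each compound was tested at five concentrations against cells in 96-well plates for 48 hours. GI50 is the concentration that inhibits growth by half.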 Activity calls are given as the source filed them. Rule as the data show it: active = GI50 up to about 1.1 µM and inactive = higher.

Among the test systems are NCI/ADR-RES; RXF 393; OVCAR-4; A549; SN12C; SK-MEL-28; K562; IGROV-1; SR; MDA-MB-231; ACHN; A498; DU-145; HOP-92; M14; OVCAR-8; T47D; MDA-N; SF-295; NCI-H460.
What all share (assay): NCI tumour cell line growth inhibition, 48 h

`c1ccc(CCN2CCN=C2Cc2ccccc2)cc1`: the GI50 in the experiment with NCI/ADR-RES was 90.4 µM (inactive); in the experiment on RXF 393, > 100 µM (inactive); with OVCAR-4 it was > 100 µM (inactive); in the experiment with A549, > 100 µM (inactive); in the experiment on SN12C it was > 100 µM (inactive); with SK-MEL-28, > 100 µM (inactive). In addition, the GI50 in the experiment on K562 is 29.2 µM (inactive); with IGROV-1 it was > 100 µM (inactive); in the experiment with SR it was > 100 µM (inactive); in the experiment on MDA-MB-231, > 100 µM (inactive); with ACHN, > 100 µM (inactive); in the experiment with A498 it was > 100 µM (inactive). Further, the GI50 in the experiment on DU-145 was > 100 µM (inactive); in the experiment with HOP-92, 28.6 µM (inactive); in the experiment with M14 it was 31.1 µM (inactive); in the experiment with OVCAR-8, > 100 µM (inactive); in the experiment with T47D it was > 100 µM (inactive); in the experiment with MDA-N, > 100 µM (inactive). Also, the GI50 with SF-295 and in the experiment on NCI-H460 was > 100 µM (inactive) each time.

Turning to `N#C/C(=C\n1ccc(=O)[nH]c1=S)C(N)=O`, the GI50 in the experiment on NCI/ADR-RES, in the experiment with RXF 393, in the experiment on OVCAR-4, in the experiment on A549, in the experiment with SN12C and in the experiment with SK-MEL-28 was > 100 µM (inactive) each time. Also, the GI50 in the experiment with K562, with IGROV-1, with SR, in the experiment on MDA-MB-231, in the experiment with ACHN and in the experiment on A498 was > 100 µM (inactive) throughout. Besides, the GI50 in the experiment on DU-145 is > 100 µM (inactive); in the experiment on HOP-92, 73.6 µM (inactive); in the experiment on M14, > 100 µM (inactive); with OVCAR-8, > 100 µM (inactive); in the experiment on T47D, > 100 µM (inactive); with MDA-N, > 100 µM (inactive). The GI50 in the experiment with SF-295 and with NCI-H460 was > 100 µM (inactive) in each case.

For the compound `O=[N+]([O-])C1(CO)COC2(OC1)c1ccccc1-c1ccccc12`, the GI50 in the experiment on NCI/ADR-RES was > 48.3 µM (inactive); with RXF 393 it was > 55.2 µM (inactive); in the experiment on OVCAR-4, > 100 µM (inactive); in the experiment on A549 it was > 100 µM (inactive); in the experiment with SN12C it was 70.1 µM (inactive); in the experiment on SK-MEL-28 it was > 100 µM (inactive). Also, the GI50 in the experiment with K562 is 64.7 µM (inactive); in the experiment with IGROV-1 it was > 89.1 µM (inactive); in the experiment with SR it was 40.6 µM (inactive); in the experiment with MDA-MB-231, > 100 µM (inactive); in the experiment on ACHN it was > 81.3 µM (inactive); with A498, > 100 µM (inactive). Besides, the GI50 in the experiment with DU-145 is 39.4 µM (inactive); with HOP-92, > 71.1 µM (inactive); with M14, 54.7 µM (inactive); with OVCAR-8, > 78.3 µM (inactive); in the experiment with T47D, 28.7 µM (inactive); with MDA-N, > 64 µM (inactive). The GI50 in the experiment with SF-295 was > 100 µM (inactive); with NCI-H460, > 77.4 µM (inactive).

Consider `Cc1ccc(/C=C/C(=N/NC(=O)N/N=C(/C=C/c2ccc(C)cc2)C(C)(C)CN2CCCCC2)C(C)(C)CN2CCCCC2)cc1`, for which the GI50 in the experiment on NCI/ADR-RES is 1.64 µM (inactive); in the experiment with RXF 393 it was 1.28 µM (inactive); in the experiment on OVCAR-4, 2.07 µM (inactive); in the experiment on A549, 1.52 µM (inactive); in the experiment on SN12C, 1.61 µM (inactive); in the experiment on SK-MEL-28, 1.73 µM (inactive). Further, the GI50 in the experiment on K562 is 0.122 µM (active); in the experiment with IGROV-1, 1.98 µM (inactive); with SR, 0.0787 µM (active); in the experiment with MDA-MB-231, 1.79 µM (inactive); in the experiment on ACHN, 2 µM (inactive); in the experiment on A498, 1.67 µM (inactive). The GI50 in the experiment on DU-145 is 3.48 µM (inactive); with HOP-92 it was 1.51 µM (inactive); in the experiment on M14, 0.614 µM (active); in the experiment on OVCAR-8 it was 1.54 µM (inactive); in the experiment on T47D, 2.19 µM (inactive); in the experiment with MDA-N, 1.52 µM (inactive). In addition, the figures for the GI50 with SF-295 and with NCI-H460 were 1.71 µM (inactive) and 1.64 µM (inactive), respectively.

As for `CCCNC(=S)N/N=C(\C)c1ccc(S(=O)(=O)N(C)c2ccccc2)cc1`, the GI50 in the experiment with NCI/ADR-RES was > 89.3 µM (inactive); in the experiment on RXF 393, 15.3 µM (inactive); in the experiment on OVCAR-4 it was > 67.6 µM (inactive); in the experiment on A549, 46.3 µM (inactive); with SN12C, > 100 µM (inactive); with SK-MEL-28, > 100 µM (inactive). The GI50 is > 100 µM (inactive) in the experiment with K562; 22.1 µM (inactive) in the experiment on IGROV-1; 49.5 µM (inactive) with SR; 27.9 µM (inactive) with MDA-MB-231; 24.7 µM (inactive) in the experiment on ACHN; 55.3 µM (inactive) with A498. The GI50 is > 78.5 µM (inactive) in the experiment with DU-145; 20.4 µM (inactive) in the experiment on HOP-92; > 29.1 µM (inactive) with M14; 24.5 µM (inactive) in the experiment on OVCAR-8; > 67.3 µM (inactive) in the experiment on T47D; > 100 µM (inactive) in the experiment with MDA-N. The GI50 with SF-295 is 18.3 µM (inactive); in the experiment with NCI-H460, > 100 µM (inactive).

With `N#Cc1nc(C2CCC2)oc1N`, the GI50 in the experiment on NCI/ADR-RES, in the experiment on RXF 393, with OVCAR-4, in the experiment with A549, in the experiment with SN12C and with SK-MEL-28 was > 100 µM (inactive) in each case. Besides, the GI50 with K562, in the experiment on IGROV-1, in the experiment with SR, with MDA-MB-231, with ACHN and in the experiment with A498 was > 100 µM (inactive) throughout. In addition, the GI50 in the experiment on DU-145, in the experiment with HOP-92, with M14, in the experiment with OVCAR-8, with T47D and in the experiment with MDA-N was > 100 µM (inactive) each time. For the same compound, the GI50 in the experiment with SF-295 and with NCI-H460 was > 100 µM (inactive) throughout.

`CN1c2c(O)nc(N)nc2NCC1CCNc1ccc(C(=O)NC(CCC(=O)O)C(=O)O)cc1` (stereo not given): the GI50 in the experiment with NCI/ADR-RES was 1920 µM (inactive); in the experiment on RXF 393, 1010 µM (inactive); in the experiment on OVCAR-4, 893 µM (inactive); with A549, 242 µM (inactive); with SN12C it was 540 µM (inactive); in the experiment on SK-MEL-28, 695 µM (inactive). Also, the GI50 with K562 was 4.13 µM (inactive); in the experiment on IGROV-1, 1030 µM (inactive); in the experiment with SR it was 25.5 µM (inactive); in the experiment on MDA-MB-231, 1530 µM (inactive); in the experiment with ACHN it was 45.4 µM (inactive); with A498, 948 µM (inactive). In addition, the GI50 in the experiment on DU-145 was 1330 µM (inactive); in the experiment on HOP-92, 1490 µM (inactive); in the experiment on M14 it was 10.3 µM (inactive); in the experiment with OVCAR-8, 1160 µM (inactive); in the experiment with T47D, 1860 µM (inactive); in the experiment on MDA-N, 112 µM (inactive). For the same compound, the GI50 with SF-295 was 187 µM (inactive); with NCI-H460, 35.6 µM (inactive).
